{"source": "patent US5686486A", "about": "“4-hydroxy-benzopyran-2-ones and 4-hydroxy-cycloalkyl[b]pyran-2-ones useful to treat retroviral infections” (priority 1995, dated 1997)", "key": {"HIV-1 protease [1]": {"molecular_target": "T1, HIV-1 protease (Human immunodeficiency virus type 1 group M subtype B, UniProt P04585)", "test": "biochemical", "method_in_brief": "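Enzyme (40 nM stock) and substrate (200 μM stock) incubated with inhibitor, 24–48 two-fold serial concentrations, for 90 min at room temperature, then quenched with avidin beads. Nonlinear least-squares analysis gives Ki; a known-Ki inhibitor validates each run.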"}, "HIV-1 protease [2]": {"molecular_target": "T1, HIV-1 protease", "test": "biochemical", "settings": "for inhibition at 1 µM: read-out: HIV-1 Protease % Inhib, dose 1.000 uM; for inhibition at 10 µM: read-out: HIV-1 Protease % Inhib, dose 10.000 uM; for inhibition at 100 µM: read-out: HIV-1 Protease % Inhib, dose 100.000 uM; for inhibition at 0.41 µM: read-out: HIV-1 Protease % Inhib, dose 0.410 uM; for inhibition at 1.23 µM: read-out: HIV-1 Protease % Inhib, dose 1.230 uM; for inhibition at 3.7 µM: read-out: HIV-1 Protease % Inhib, dose 3.700 uM; for inhibition at 11 µM: read-out: HIV-1 Protease % Inhib, dose 11.000 uM; for inhibition at 33 µM: read-out: HIV-1 Protease % Inhib, dose 33.000 uM; for inhibition at 0.123 µM: read-out: HIV-1 Protease % Inhib, dose 0.123 uM; for inhibition at 0.37 µM: read-out: HIV-1 Protease % Inhib, dose 0.370 uM; for inhibition at 1.1 µM: read-out: HIV-1 Protease % Inhib, dose 1.100 uM; for inhibition at 3.3 µM: read-out: HIV-1 Protease % Inhib, dose 3.300 uM; for inhibition at 30 µM: read-out: HIV-1 Protease % Inhib, dose 30.000 uM", "method_in_brief": "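Percent inhibition derived from fluorescent cleavage product separated by filtration after streptavidin-bead capture of intact biotin/FITC substrate. Reaction: enzyme (10 μl, 0.1 μM stock) with substrate (20 μl, 0.2 μM stock) and compound, 1 h at room temperature in dark, pH 5.5 acetate buffer with 1.0 M NaCl and 0.05% NP-40.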"}}, "note": "Like-named read-outs stand apart in the source and are kept apart here."}
{"molecule": "CCC(c1cccc(NS(=O)(=O)CCN2C(=O)c3ccccc3C2=O)c1)c1c(O)c2ccccc2oc1=O", "note": "(stereo not shown) [Example 139, 2-(1,3-Dioxo-1,3-dihydro-isoindol-2-yl)-ethanesulfonic acid(3-(1-(4-hydroxy-2-oxo-2H-chromen-3-yl)-propyl)-phenyl)amide]", "values": [{"measurement": "Ki", "setting": "HIV-1 protease [1]; HIV-1 FITC KI", "result": 500, "unit": "nM"}, {"measurement": "inhibition at 1 µM", "setting": "HIV-1 protease [2]", "result": 36.6, "unit": "%"}, {"measurement": "inhibition at 10 µM", "setting": "HIV-1 protease [2]", "result": 80.7, "unit": "%"}, {"measurement": "inhibition at 100 µM", "setting": "HIV-1 protease [2]", "result": 99.2, "unit": "%"}]}
{"molecule": "CCC(c1cccc(NS(=O)(=O)CCNC(=O)OC(C)(C)C)c1)c1c(O)c2ccccc2oc1=O", "note": "(stereo not shown) [Example 140, 2-(N-t-butyloxycarbonyl-amino)-ethanesulfonic acid (3-(1-(4-hydroxy-2-oxo-2H-chromen-3-yl)-propyl)-phenyl)-amide]", "values": [{"measurement": "Ki", "setting": "HIV-1 protease [1]; HIV-1 FITC KI", "result": 762, "unit": "nM"}, {"measurement": "inhibition at 0.41 µM", "setting": "HIV-1 protease [2]", "result": "< 10", "unit": "%"}, {"measurement": "inhibition at 1.23 µM", "setting": "HIV-1 protease [2]", "result": 16.5, "unit": "%"}, {"measurement": "inhibition at 3.7 µM", "setting": "HIV-1 protease [2]", "result": 48.1, "unit": "%"}, {"measurement": "inhibition at 11 µM", "setting": "HIV-1 protease [2]", "result": 71.8, "unit": "%"}, {"measurement": "inhibition at 33 µM", "setting": "HIV-1 protease [2]", "result": 91.1, "unit": "%"}, {"measurement": "inhibition at 100 µM", "setting": "HIV-1 protease [2]", "result": 109, "unit": "%"}]}
{"molecule": "O=c1oc2ccccc2c(O)c1C(Cc1ccccc1)Cc1ccccc1", "note": "[Example 146, 3-(1-Benzyl-2-phenyl-ethyl)4-hydroxy-chromen-2-one]", "values": [{"measurement": "Ki", "setting": "HIV-1 protease [1]; HIV-1 FITC KI", "result": 130, "unit": "nM"}, {"measurement": "inhibition at 1 µM", "setting": "HIV-1 protease [2]", "result": 54.4, "unit": "%"}, {"measurement": "inhibition at 10 µM", "setting": "HIV-1 protease [2]", "result": 92.7, "unit": "%"}, {"measurement": "inhibition at 100 µM", "setting": "HIV-1 protease [2]", "result": 98.6, "unit": "%"}]}
{"molecule": "CCC(c1cccc(C(=O)NC(C(=O)NCc2ccccn2)C(C)CC)c1)c1c(O)c2ccccc2oc1=O", "note": "(stereo not shown) [Example 149, 3-(1-(4-Hydroxy-2-oxo-2H-chromen-3-yl)-propyl)-N-(2-methyl-1-(pyridin-2-ylmethylcarbomoyl)-butyl)-benzamide]", "values": [{"measurement": "Ki", "setting": "HIV-1 protease [1]; HIV-1 FITC KI", "result": 405, "unit": "nM"}, {"measurement": "inhibition at 1 µM", "setting": "HIV-1 protease [2]", "result": 28.8, "unit": "%"}, {"measurement": "inhibition at 10 µM", "setting": "HIV-1 protease [2]", "result": 99.2, "unit": "%"}, {"measurement": "inhibition at 100 µM", "setting": "HIV-1 protease [2]", "result": 97.3, "unit": "%"}]}
{"molecule": "CC(C)(C)C(c1ccccc1)c1c(O)c2ccccc2oc1=O", "note": "(stereo not shown) [Example 152, 3-(2,2-Dimethyl-1-phenyl-propyl)-4-hydroxy-chromen-2-one]", "values": [{"measurement": "Ki", "setting": "HIV-1 protease [1]; HIV-1 FITC KI", "result": 1010, "unit": "nM"}, {"measurement": "inhibition at 0.41 µM", "setting": "HIV-1 protease [2]", "result": "< 10", "unit": "%"}, {"measurement": "inhibition at 1.23 µM", "setting": "HIV-1 protease [2]", "result": 14.2, "unit": "%"}, {"measurement": "inhibition at 3.7 µM", "setting": "HIV-1 protease [2]", "result": 35.5, "unit": "%"}, {"measurement": "inhibition at 11 µM", "setting": "HIV-1 protease [2]", "result": 73.7, "unit": "%"}, {"measurement": "inhibition at 33 µM", "setting": "HIV-1 protease [2]", "result": 102, "unit": "%"}, {"measurement": "inhibition at 100 µM", "setting": "HIV-1 protease [2]", "result": 110, "unit": "%"}]}
{"molecule": "CCC(c1ccccc1)c1c(O)c2ccc(OCCOCCOCCOC)cc2oc1=O", "note": "(stereo not shown) [Example 154]", "values": [{"measurement": "Ki", "setting": "HIV-1 protease [1]; HIV-1 FITC KI", "result": 520, "unit": "nM"}, {"measurement": "inhibition at 1 µM", "setting": "HIV-1 protease [2]", "result": 13.6, "unit": "%"}, {"measurement": "inhibition at 10 µM", "setting": "HIV-1 protease [2]", "result": 77.1, "unit": "%"}, {"measurement": "inhibition at 100 µM", "setting": "HIV-1 protease [2]", "result": 96, "unit": "%"}]}
{"molecule": "O=c1oc2ccccc2c(O)c1C1CCN(Cc2ccccc2)c2ccccc21", "note": "(stereo not shown) [Example 159, 3-(1-Benzyl-1,2,3,4-tetrahydro-quinolin4-yl)-4-hydroxy-chromin-2-one]", "values": [{"measurement": "Ki", "setting": "HIV-1 protease [1]; HIV-1 FITC KI", "result": 2400, "unit": "nM"}, {"measurement": "inhibition at 0.41 µM", "setting": "HIV-1 protease [2]", "result": "< 10", "unit": "%"}, {"measurement": "inhibition at 1.23 µM", "setting": "HIV-1 protease [2]", "result": 14.4, "unit": "%"}, {"measurement": "inhibition at 3.7 µM", "setting": "HIV-1 protease [2]", "result": 39.8, "unit": "%"}, {"measurement": "inhibition at 11 µM", "setting": "HIV-1 protease [2]", "result": 74.3, "unit": "%"}, {"measurement": "inhibition at 33 µM", "setting": "HIV-1 protease [2]", "result": 84.2, "unit": "%"}, {"measurement": "inhibition at 100 µM", "setting": "HIV-1 protease [2]", "result": 91.1, "unit": "%"}]}
{"molecule": "CC(CO)C1CCCCCc2c1oc(=O)c(C(c1ccccc1)C1CC1)c2O", "note": "(stereo not shown) [Example 161, 3-(Cyclopropylphenylmethyl)-5,6,7,8,9,10-hexahydro-4-hydroxy-10-(2-hydroxy-1-methylethyl)-2H-cyclooct[b]pyran-2-one]", "values": [{"measurement": "Ki", "setting": "HIV-1 protease [1]; read-out: HIV-1 FITC KI", "result": 32, "unit": "nM"}, {"measurement": "inhibition at 0.123 µM", "setting": "HIV-1 protease [2]", "result": 20, "unit": "%"}, {"measurement": "inhibition at 0.37 µM", "setting": "HIV-1 protease [2]", "result": 67.3, "unit": "%"}, {"measurement": "inhibition at 1.1 µM", "setting": "HIV-1 protease [2]", "result": 98.7, "unit": "%"}, {"measurement": "inhibition at 3.3 µM", "setting": "HIV-1 protease [2]", "result": 104, "unit": "%"}, {"measurement": "inhibition at 10 µM", "setting": "HIV-1 protease [2]", "result": 106, "unit": "%"}, {"measurement": "inhibition at 30 µM", "setting": "HIV-1 protease [2]", "result": 111, "unit": "%"}]}
{"molecule": "CC(O)CC1CCCCCc2c1oc(=O)c(C(c1ccccc1)C1CC1)c2O", "note": "(stereo not shown) [Example 162, 3-(Cyclopropylphenylmethyl)-5,6,7,8,9,10-hexahydro-4-hydroxy-10-(2-hydroxypropyl)-2H-cycloocta[b]pyran-2-one]", "values": [{"measurement": "Ki", "setting": "HIV-1 protease [1]; read-out: HIV-1 FITC KI", "result": 40, "unit": "nM"}, {"measurement": "inhibition at 0.123 µM", "setting": "HIV-1 protease [2]", "result": 14.8, "unit": "%"}, {"measurement": "inhibition at 0.37 µM", "setting": "HIV-1 protease [2]", "result": 56, "unit": "%"}, {"measurement": "inhibition at 1.1 µM", "setting": "HIV-1 protease [2]", "result": 92.2, "unit": "%"}, {"measurement": "inhibition at 3.3 µM", "setting": "HIV-1 protease [2]", "result": 99.3, "unit": "%"}, {"measurement": "inhibition at 10 µM", "setting": "HIV-1 protease [2]", "result": 102, "unit": "%"}, {"measurement": "inhibition at 30 µM", "setting": "HIV-1 protease [2]", "result": 109, "unit": "%"}]}
{"molecule": "O=c1oc2c(c(O)c1C(c1ccccc1)C1CC1)CCCCCC2CC1CO1", "note": "(stereo not shown) [Example 163, 3-(Cyclopropylphenylmethyl)-5,6,7,8,9,10-hexahydro-4-hydroxy-10-(oxiranylmethyl)-2H-cycloocta[b]pyran-2-one]", "values": [{"measurement": "Ki", "setting": "HIV-1 protease [1]; read-out: HIV-1 FITC KI", "result": 34, "unit": "nM"}, {"measurement": "inhibition at 0.123 µM", "setting": "HIV-1 protease [2]", "result": 17.7, "unit": "%"}, {"measurement": "inhibition at 0.37 µM", "setting": "HIV-1 protease [2]", "result": 56, "unit": "%"}, {"measurement": "inhibition at 1.1 µM", "setting": "HIV-1 protease [2]", "result": 84.2, "unit": "%"}, {"measurement": "inhibition at 3.3 µM", "setting": "HIV-1 protease [2]", "result": 98.6, "unit": "%"}, {"measurement": "inhibition at 10 µM", "setting": "HIV-1 protease [2]", "result": 107, "unit": "%"}, {"measurement": "inhibition at 30 µM", "setting": "HIV-1 protease [2]", "result": 105, "unit": "%"}]}
